Measured values published in ChEMBL document CHEMBL5244280, “Evodiamine Lowers Blood Lipids by Up-Regulating the PPARγ/ABCG1 Pathway in High-Fat-Diet-Fed Mice” (J Nat Prod, 2021).

Tested on: HEK293
Assay: Agonist activity at human PPAR-beta expressed in HEK293 cells co-transfected with luciferase reporter plasmid assessed as receptor transactivation at 10 nM incubated for 18 hrs by luciferase reporter gene assay relative to control
Assay type: cell-based
Conditions: filed as agonist

Cc1cc(SCc2sc(-c3ccc(C(F)(F)F)c(F)c3)nc2C)ccc1OCC(=O)O
fold change (FC): 18.3
